Patent publication US20130157924A1, “REDUCING TRANSMISSION OF SEXUALLY TRANSMITTED INFECTIONS” (THE REGENTS OF THE UNIVERSITY OF CALIFORNIA, priority 2010, published 2013)
Entries after “also recorded” stand apart in the source; their conditions may differ.

Columns and labels:
[1] = tested on: cervical epithelial cell lines SiHa, A2En (endocervical), and 3EC1 (ectocervical); assay: Viability of cervical cell lines (resazurin, AlamarBlue); assay type: cell-based, human; settings: up to 10 times the IC50 (66 μg/ml)
Excerpt: Loss of this protective layer leads to an increased ability for HIV-1 to cross the mucosal barrier, and inflammatory effects drive recruitment of HIV-1 target cells, further decreasing the natural barriers against successful transmission of HIV. […] To do this, the following cell lines were used: 1) SiHa cells, a cervical carcinoma cell line; 2) A2En cells, a primary cell-derived line from the endocervical […]; and 3) 3EC1 cells, a primary cell-derived line from the ectocervical […]. […] Viability was assessed at 24 h by using the resazurin cytotoxicity assay. Resazurin cytotoxicity data were confirmed by trypan blue counts of viable cells.

SEVI fibrils = biological target: T1, SEVI fibrils (Homo sapiens, UniProt P15309); assay: Fluorescence polarization, displacement of FITC-heparin from SEVI fibrils; assay type: binding; design: PAP248-286 and biotinylated PAP248-286, in which a biotin was added to the amino terminus of the peptide, was synthesized; made in house; host or cells: chemical peptide synthesis; fibrils formed by agitation in PBS at 37 °C for 72 h; settings: 16 μg/ml FITC-heparin; 1 h room temperature
T1 sequence (P15309 248-286 limits assumed): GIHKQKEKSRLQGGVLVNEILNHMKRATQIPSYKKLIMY
Procedure: Samples were incubated 1 h at room temperature and read on a PerkinElmer Life Sciences Envision 2012 multilabel reader (PerkinElmer, Waltham, Mass.) at an excitation λ=480 nm and emission λ=535 nm. The horizontal and vertical polarized fluorescence intensities were recorded, and the calculated polarization was determined in millipolarization units.
In order to find other small molecules that bind SEVI, a fluorescence polarizing screen was developed. Polarized light passed over a small unbound molecule with a fluorescent moiety will produce rapid rotation and will result in fluorescence that is de-polarized. Polarized light passed over SEVI bound to a small molecule with a fluorescent moiety will result in fluorescence that is polarized. […] Samples were incubated at excitation of λ=480 and emission λ=535 (FIG. 8, left graph). […] Samples were incubated for 1 hour at room temperature and polarized fluorescence was measured.
ThT is able to intercalate into the generic β-sheet structure of amyloid fibrils. […] This molecule binds to Aβ fibrils and interferes with the ability of Aβ-binding proteins to interact with the fibrils.

HIV-1 IIIB [2] = assay: Semen mediated enhancement of HIV infection, CEM 5.25 cells (luciferase); assay type: cell-based; settings: 50% semen, diluted 15 fold; 48 hours
Procedure: After 10 minutes these stocks were diluted 15 fold into CEM 5.25 cells.
After 10 minutes, the stocks were diluted 15 fold and incubated with CEM 5.25 cells. […] After 90 minutes cells were washed to remove any unbound virus and bound virions were detected using a p24 ELISA.

HIV-1 IIIB [3] = assay: Virus binding assay, HIV-1 IIIB virions to Jurkat cells (p24); assay type: cell-based; settings: for SEVI-enhanced binding of HIV-1 IIIB virions to Jurkat cells (p24 ELISA): SEVI-pretreated virions, 90 min, increasing concentrations
Procedure: After 90 minutes, cells were washed to remove any unbound virus and bound virions were detected using a p24 ELISA. […]
After 90 min, cells were washed to remove any unbound virus, and bound virions were detected using an HIV-1 p24 antigen capture assay (Advanced Bioscience Laboratory). […]
After 90 min, cells were washed to remove any unbound virus, and bound virions were detected using an HIV-1 p24 antigen capture assay (Advanced Bioscience Laboratory, Rockville, Md.).

HIV-1 (IIIB) = assay: SEVI mediated enhancement of HIV infection, CEM 5.25 cells (luciferase); assay type: cell-based; settings: 25 μg/mL SEVI fibrils; compound 5.5, 11 and 16.5 μg/mL; 72 hrs
Procedure: CEM 5.25 cells were exposed to infectious HIV-1 (IIIB) for 2 hours in the absence or presence (25 μg/mL) of SEVI fibrils; BTA-EG4 (FIG. 5A) and EG6 (FIG. 5B) was added at concentrations of 5.5, 11 and 16.5 μg/mL.

[4] = tested on: A2En, 3EC1, and SiHa Cells; assay: Cytokine and chemokine induction in cervical cell lines (ELISA); settings: 6 h; varying concentrations up to 66 μg/ml
HIV-1ADA [5] = settings: individual semen sample, 50%; R5 virus
Procedure: (§1) After 15 min, the semen and virus mixture was diluted 1:15 into 5×10^4 CEM-M7 cells/well in a 96-well plate. Cells were washed after 1 h, and infection was assayed at 48 h as above.
(§2) As human semen has been reported to be toxic to cultured cells, a protocol that minimized this toxicity was used. Pooled human semen was added to HIV-1IIIB virus in a 1:1 dilution. After 15 min, this solution was added to cells at a 1:15 dilution for a final concentration of 3.3%.

HIV-1IIIB = settings: pooled human semen 1:1, then 1:15; 5.5, 11, 22.5 μg/ml
Procedure: as §1, §2

HIV-1ADA [6] = settings: 22.5 μg/ml BTA-EG6
Procedure: After 90 min, cells were washed to remove any unbound virus, and bound virions were detected using a p24 ELISA. […] At 24 h, supernatants were collected and analyzed by ELISA for the presence of IL-8.
Surface-bound virions were then measured by p24 ELISA after washing off unbound virus. […] Additionally, this experiment was performed using A2En cells, a primary cell-derived endocervical cell line.

Jurkat cells = assay: Flow cytometry, binding of SEVI-biotin fibrils to Jurkat cell surface (SA-FITC); assay type: cell-based, human; settings: for MFI (mean fluorescent intensity) / SA-FITC+ (cells with bound fibrils): SEVI-biotin 1 h
Procedure: Cells were incubated for 1 h at 37° C., washed, and stained for 1 h with a covalent conjugate of streptavidin and fluorescein isothiocyanate (SA-FITC). Cells were washed and run on an Accuri C6 Flow Cytometer (Accuri Cytometers, Ann Arbor, Mich.). Data were analyzed using FlowJo (TreeStar Inc, Ashland, Oreg.).
After that time, fibrillar structures were examined by ThT fluorescence. ThT changes in fluorescence intensity when intercalated into the β-sheet structure common to amyloid fibrils; therefore, ThT fluorescence serves as a surrogate measure for fibrillar structure of SEVI and for the stability of SEVI fibrils. […] Binding of the fibrils to the cell surface was detected using SA-FITC. […] Surface-bound fibrils were detected with SA-FITC and measured by flow cytometry. Results are shown as percentage of cells with bound fibrils (SA-FITC+) as well as mean fluorescent intensity (MFI).

HIV-1ADA [7] = tested on: HIV-1ADA
Procedure: Treated virions were then added to 5×10^4 CEM-M7 cells/well in 96-well flat-bottomed tissue culture plates. After 2 h, the medium […] were replaced. Infection was assayed after 48 h by quantifying luciferase expression using the Promega Dual-Luciferase assay and a Beckman Coulter DTX880 plate reader.

HIV-1BaL = tested on: HIV-1BaL
Procedure: Cells were washed at 3 h, and infection was analyzed at day 4 using the HIV-1 p24 antigen capture assay (Advanced Bioscience Laboratory).

[8] = biological target: aggregated Alzheimer disease-related Aβ(1-42) peptides (Homo sapiens, UniProt P05067); settings: read-out: Kd for binding to aggregated Aβ(1-42) peptides; same fluorescence binding assay
Chain of aggregated Alzheimer disease-related Aβ(1-42) peptides (P05067 672-713): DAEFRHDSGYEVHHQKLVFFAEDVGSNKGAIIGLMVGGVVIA
Procedure: These incubations were performed in duplicate runs and allowed to equilibrate overnight at room temperature. After equilibration, each solution was centrifuged at 16,000×g for 30 min. The supernatants were separated from the pelleted fibrils, and 220 μl of fresh PBS was added to resuspend the pellets. […] Error bars represent standard deviations from the mean. […] The data were processed using Origin 7.0 (MicroCal Software, Inc., Northampton, Mass.).

A2En cells = settings: 15 μg/ml SEVI; 5.5, 11, 22.5 μg/ml; 24 h
Procedure: Supernatant was collected at 6 and 24 h, and the production of the chemokines IL-8 and Mip-3α was measured by ELISA (R&D Systems). […] After 6 h, supernatants were collected, and the production of the chemokines IL-8 and Mip-3α was measured by ELISA (R&D systems, Minneapolis, Minn.).
HIV stimulates the release of MIP-3 and IL-8 from vaginal and cervical epithelial cells.

[9] = heparin (100 μg/ml) positive control

Cc1ccc2nc(-c3ccc(NCCOCCOCCOCCO)cc3)sc2c1 [BTA-EG4]
cell viability [1]: did not affect the cell viability; also recorded: not toxic to cervical epithelial Cells | binding to SEVI fibrils (displacement of FITC-heparin, polarized fluorescence) (SEVI fibrils): capable of binding SEVI; also recorded: detects binding | semen mediated enhancement of HIV infection (luciferase activity) (HIV-1 IIIB [2]): decrease in luciferase activity; also recorded: inhibit semen mediated enhancement of HIV Infection | SEVI-enhanced binding of HIV-1 IIIB virions to Jurkat cells (p24 ELISA) (HIV-1 IIIB [3]): decrease in HIV-1 binding to the cells; also recorded: decrease SEVI enhanced binding of HIV to target cells | SEVI mediated enhancement of HIV infection (luciferase activity) (HIV-1 (IIIB)): decreasing levels of luciferase activity; also recorded: inhibit SEVI mediated enhancement of HIV infection | production of inflammatory cytokines and chemokines (Mip-3α, IL-8, IL-1β, TNF-α) [4]: do not induce cytokine production in cervical epithelial cells

Cc1ccc2nc(-c3ccc(NCCOCCOCCOCCOCCOCCO)cc3)sc2c1 [BTA-EG6]
semen-mediated enhancement of HIV-1 infection (luciferase) (HIV-1ADA [5]): this effect extended to infection with an R5 virus | semen-mediated enhancement of HIV-1 infection (luciferase) (HIV-1IIIB): efficiently inhibited the semen mediated enhancement of HIV-1 infection; also recorded: inhibits semen-mediated enhancement of HIV-1 infectivity | SEVI-enhanced binding of virions to A2En cells (p24) (HIV-1ADA [6]): inhibited | cell viability [1]: did not affect the cell viability; also recorded: did not have any effects on cell viability; also recorded: not toxic to cervical cells | cell viability ([1]; listed as EG6): not toxic to cervical epithelial Cells | binding to SEVI fibrils (displacement of FITC-heparin, polarized fluorescence) (SEVI fibrils): capable of binding SEVI; also recorded: able to displace fluorescent heparin from the SEVI fibrils in a dose-dependent fashion; also recorded: detects binding; also recorded: binds SEVI fibrils | MFI (mean fluorescent intensity) (Jurkat cells; BTA-EG6 high (27 μg/ml)): 38.7 | SA-FITC+ (cells with bound fibrils) (Jurkat cells; BTA-EG6 high (27 μg/ml)): 21.2% | MFI (mean fluorescent intensity) (Jurkat cells; BTA-EG6 low (5.5 μg/ml)): 95.3 | SA-FITC+ (cells with bound fibrils) (Jurkat cells; BTA-EG6 low (5.5 μg/ml)): 36.6% | interaction of SEVI fibrils with the cell surface (Jurkat cells; Jurkat T cells, increasing concentrations): inhibited the ability of SEVI fibrils to interact with and bind the cell surface; also recorded: inhibits the interaction of SEVI fibrils with the cell surface | semen mediated enhancement of HIV infection (luciferase activity) (HIV-1 IIIB [2]): decrease in luciferase activity; also recorded: inhibit semen mediated enhancement of HIV Infection | binding of HIV virions to the cell surface in the absence of SEVI (HIV-1 IIIB [3]; Jurkat cells, no SEVI): no effect on the binding of HIV virions to the cell surface; also recorded: no effect on the binding of HIV-1 virions alone to cells | SEVI-enhanced binding of HIV-1 IIIB virions to Jurkat cells (p24 ELISA) (HIV-1 IIIB [3]): decrease in HIV-1 binding to the cells; also recorded: decrease SEVI enhanced binding of HIV to target cells; also recorded: efficiently inhibited SEVI-mediated enhancement of HIV-1IIIB attachment to Jurkat cells | SEVI-enhanced binding of HIV-1 IIIB virions to Jurkat cells (p24 ELISA) (HIV-1 IIIB [3]; listed as BTAEG6): efficiently abrogated | SEVI-mediated enhancement of HIV-1 infection (luciferase) (HIV-1ADA [7]; 15 μg/ml SEVI, R5 strain): significant dose-dependent inhibition | infectivity of HIV-1ADA in the absence of SEVI (HIV-1ADA [7]; absence of SEVI): No effect on the infectivity of HIV-1ADA | SEVI mediated enhancement of HIV infection (luciferase activity) (HIV-1 (IIIB)): decreasing levels of luciferase activity; also recorded: inhibit SEVI mediated enhancement of HIV infection | SEVI-mediated enhancement of HIV-1 infection in PBMCs (p24) (HIV-1BaL; 15 μg/ml SEVI, day 4): able to inhibit SEVI-mediated enhancement of HIV-1 infection in PBMCs | infectivity of HIV-1BaL in PBMCs in the absence of SEVI (HIV-1BaL; absence of SEVI): no effect on the infectivity of HIV-1BaL | production of inflammatory cytokines and chemokines (Mip-3α, IL-8, IL-1β, TNF-α) [4]: did not lead to the release of any of these cytokines or chemokines; also recorded: do not induce cytokine production in cervical epithelial cells; also recorded: does not induce inflammatory chemokine production in cervical epithelial cells | Kd [8]: 111 ± 32 nM | IL-8 release from cells treated with virus and SEVI (A2En cells): able to inhibit this release

heparin [reference compound]
binding to SEVI fibrils (displacement of FITC-heparin, polarized fluorescence) (SEVI fibrils): polarization decreased | MFI (mean fluorescent intensity) (Jurkat cells; [9]): 376 | SA-FITC+ (cells with bound fibrils) (Jurkat cells; [9]): 31.7%
